Measured values taken from PubChem BioAssay (NCI).
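48-hour exposure; five concentrations; linearly interpolated endpoints. GI50 = concentration required for 50% inhibition of growth. TGI is the concentration that stops growth completely.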

Legend:
Assay in all cases: inhibition of tumour cell growth, NCI panel, 48 h
SNB-19 CNS = system: SNB-19 CNS
HOP-92 NSCLC = system: HOP-92 NSCLC
HCC-2998 colon = system: HCC-2998 colon
IGROV1 ovarian = system: IGROV1 ovarian
TK-10 renal = system: TK-10 renal
BT-549 breast = system: BT-549 breast
ACHN renal = system: ACHN renal
SF-268 CNS = system: SF-268 CNS
HCT-116 colon = system: HCT-116 colon
HCT-15 colon = system: HCT-15 colon
HS 578T breast = system: HS 578T breast
SW-620 colon = system: SW-620 colon
NCI/ADR-RES ovarian = system: NCI/ADR-RES ovarian
PC-3 prostate = system: PC-3 prostate
HT29 colon = system: HT29 colon
UACC-257 melanoma = system: UACC-257 melanoma
UO-31 renal = system: UO-31 renal
CAKI-1 renal = system: CAKI-1 renal
SNB-75 CNS = system: SNB-75 CNS
SK-MEL-2 melanoma = system: SK-MEL-2 melanoma
HOP-62 NSCLC = system: HOP-62 NSCLC
NCI-H522 lung = system: NCI-H522 lung
MDA-MB-435 = system: MDA-MB-435
SK-OV-3 ovarian = system: SK-OV-3 ovarian
SF-295 CNS = system: SF-295 CNS
MALME-3M melanoma = system: MALME-3M melanoma
SK-MEL-28 melanoma = system: SK-MEL-28 melanoma
MOLT-4 leukemia = system: MOLT-4 leukemia
A549 NSCLC = system: A549 NSCLC
EKVX NSCLC = system: EKVX NSCLC
COLO 205 colon = system: COLO 205 colon
KM12 colon = system: KM12 colon
U251 CNS = system: U251 CNS
A498 renal = system: A498 renal
SF-539 CNS = system: SF-539 CNS
DU-145 prostate = system: DU-145 prostate
T-47D breast = system: T-47D breast
NCI-H23 lung = system: NCI-H23 lung
SR leukemia = system: SR leukemia
UACC-62 melanoma = system: UACC-62 melanoma
MDA-MB-231 breast = system: MDA-MB-231 breast
LOX IMVI melanoma = system: LOX IMVI melanoma
NCI-H460 lung = system: NCI-H460 lung
CCRF-CEM leukemia = system: CCRF-CEM leukemia
SN12C renal = system: SN12C renal
K-562 leukemia = system: K-562 leukemia
OVCAR-5 ovarian = system: OVCAR-5 ovarian
NCI-H226 lung = system: NCI-H226 lung
HL-60(TB) leukemia = system: HL-60(TB) leukemia
786-0 renal = system: 786-0 renal
RPMI-8226 leukemia = system: RPMI-8226 leukemia
RXF 393 renal = system: RXF 393 renal
MCF7 breast = system: MCF7 breast
OVCAR-8 ovarian = system: OVCAR-8 ovarian
SK-MEL-5 melanoma = system: SK-MEL-5 melanoma
M14 melanoma = system: M14 melanoma
OVCAR-3 ovarian = system: OVCAR-3 ovarian
OVCAR-4 ovarian = system: OVCAR-4 ovarian

COc1cc(/C=N/Nc2ncnc3[nH]ncc23)ccc1O
GI50 (SNB-19 CNS): > 25 µM
TGI (SNB-19 CNS): > 25 µM
GI50 (HOP-92 NSCLC): 6.77 µM
TGI (HOP-92 NSCLC): > 22.1 µM
GI50 (HCC-2998 colon): > 25 µM
TGI (HCC-2998 colon): > 25 µM
GI50 (IGROV1 ovarian): 8.97 µM
TGI (IGROV1 ovarian): > 25 µM
GI50 (TK-10 renal): 9.15 µM
TGI (TK-10 renal): > 22.1 µM
GI50 (BT-549 breast): > 23.6 µM
TGI (BT-549 breast): > 25 µM
GI50 (ACHN renal): 8.01 µM
TGI (ACHN renal): > 25 µM
GI50 (SF-268 CNS): 21.4 µM
TGI (SF-268 CNS): > 25 µM
GI50 (HCT-116 colon): 19.6 µM
TGI (HCT-116 colon): > 25 µM
GI50 (HCT-15 colon): 24.6 µM
TGI (HCT-15 colon): > 25 µM
GI50 (HS 578T breast): 6.53 µM
TGI (HS 578T breast): > 20.5 µM
GI50 (SW-620 colon): > 25 µM
TGI (SW-620 colon): > 25 µM
GI50 (NCI/ADR-RES ovarian): > 25 µM
TGI (NCI/ADR-RES ovarian): > 25 µM
GI50 (PC-3 prostate): > 20.6 µM
TGI (PC-3 prostate): > 25 µM
GI50 (HT29 colon): 12.6 µM
TGI (HT29 colon): > 25 µM
GI50 (UACC-257 melanoma): > 21.8 µM
TGI (UACC-257 melanoma): > 25 µM
GI50 (UO-31 renal): 5.96 µM
TGI (UO-31 renal): > 25 µM
GI50 (CAKI-1 renal): 6.93 µM
TGI (CAKI-1 renal): > 25 µM
GI50 (SNB-75 CNS): 4.83 µM
TGI (SNB-75 CNS): > 16.6 µM
GI50 (SK-MEL-2 melanoma): 6.53 µM
TGI (SK-MEL-2 melanoma): 17.1 µM
GI50 (HOP-62 NSCLC): 19.8 µM
TGI (HOP-62 NSCLC): > 25 µM
GI50 (NCI-H522 lung): 11 µM
TGI (NCI-H522 lung): > 25 µM
GI50 (MDA-MB-435): 7.95 µM
TGI (MDA-MB-435): > 25 µM
GI50 (SK-OV-3 ovarian): 17.9 µM
TGI (SK-OV-3 ovarian): > 25 µM
GI50 (SF-295 CNS): 18.6 µM
TGI (SF-295 CNS): > 25 µM
GI50 (MALME-3M melanoma): 11.7 µM
TGI (MALME-3M melanoma): > 25 µM
GI50 (SK-MEL-28 melanoma): > 20.1 µM
TGI (SK-MEL-28 melanoma): > 25 µM
GI50 (MOLT-4 leukemia): 12.4 µM
TGI (MOLT-4 leukemia): > 25 µM
GI50 (A549 NSCLC): > 25 µM
TGI (A549 NSCLC): > 25 µM
GI50 (EKVX NSCLC): > 23.2 µM
TGI (EKVX NSCLC): > 25 µM
GI50 (COLO 205 colon): > 25 µM
TGI (COLO 205 colon): > 25 µM
GI50 (KM12 colon): 12.6 µM
TGI (KM12 colon): > 25 µM
GI50 (U251 CNS): 24.7 µM
TGI (U251 CNS): > 25 µM
GI50 (A498 renal): 8.93 µM
TGI (A498 renal): > 25 µM
GI50 (SF-539 CNS): 7.78 µM
TGI (SF-539 CNS): > 21.8 µM
GI50 (DU-145 prostate): > 23.9 µM
TGI (DU-145 prostate): > 25 µM
GI50 (T-47D breast): 6.82 µM
TGI (T-47D breast): > 25 µM
GI50 (NCI-H23 lung): > 21.7 µM
TGI (NCI-H23 lung): > 25 µM
GI50 (SR leukemia): 13.1 µM
TGI (SR leukemia): > 25 µM
GI50 (UACC-62 melanoma): 11.3 µM
TGI (UACC-62 melanoma): > 25 µM
GI50 (MDA-MB-231 breast): > 20.1 µM
TGI (MDA-MB-231 breast): > 25 µM
GI50 (LOX IMVI melanoma): 9.26 µM
TGI (LOX IMVI melanoma): > 25 µM
GI50 (NCI-H460 lung): 24.7 µM
TGI (NCI-H460 lung): > 25 µM
GI50 (CCRF-CEM leukemia): 14.8 µM
TGI (CCRF-CEM leukemia): > 25 µM
GI50 (SN12C renal): 13.6 µM
TGI (SN12C renal): > 25 µM
GI50 (K-562 leukemia): 9.94 µM
TGI (K-562 leukemia): > 25 µM
GI50 (OVCAR-5 ovarian): > 19.4 µM
TGI (OVCAR-5 ovarian): > 25 µM
GI50 (NCI-H226 lung): > 25 µM
TGI (NCI-H226 lung): > 25 µM
GI50 (HL-60(TB) leukemia): > 23.6 µM
TGI (HL-60(TB) leukemia): > 25 µM
GI50 (786-0 renal): 11.8 µM
TGI (786-0 renal): > 25 µM
GI50 (RPMI-8226 leukemia): > 25 µM
TGI (RPMI-8226 leukemia): > 25 µM
GI50 (RXF 393 renal): 5.24 µM
TGI (RXF 393 renal): > 18.9 µM
GI50 (MCF7 breast): 11.4 µM
TGI (MCF7 breast): > 25 µM
GI50 (OVCAR-8 ovarian): > 25 µM
TGI (OVCAR-8 ovarian): > 25 µM
GI50 (SK-MEL-5 melanoma): 17.5 µM
TGI (SK-MEL-5 melanoma): > 25 µM
GI50 (M14 melanoma): 15.7 µM
TGI (M14 melanoma): > 25 µM
GI50 (OVCAR-3 ovarian): > 22.7 µM
TGI (OVCAR-3 ovarian): > 25 µM
GI50 (OVCAR-4 ovarian): > 25 µM
TGI (OVCAR-4 ovarian): > 25 µM
